# Measurements taken from paper PMC10396955, “2-Oxabicyclo[2.1.1]hexanes as saturated bioisosteres of the ortho-substituted phenyl ring” (Nature Chemistry, 2023).
# Legend:
# Fusarium oxysporum = assay: Antifungal activity, agar well diffusion method; assay type: cell-based; settings: for zone of inhibition at 3.9 µg/mL / zone of inhibition at […] / zone of inhibition at 15.6 µg/mL / zone of inhibition at 31.25 µg/mL / zone of inhibition at 62.5 µg/mL / zone of inhibition at 125 µg/mL / zone of inhibition at 250 µg/mL / zone of inhibition at 500 µg/mL / zone of inhibition at 1000 µg/mL: Fusarium oxysporum, zones st (static growth), read-out: Diameter of inhibition zone; for zone of inhibition at 3.9 µg/mL: 0.0039 mg/mL; for zone of inhibition at […]: 0.0078 mg/mL; for zone of inhibition at 15.6 µg/mL: 0.0156 mg/mL; for zone of inhibition at 31.25 µg/mL: 0.03125 mg/mL; for zone of inhibition at 62.5 µg/mL: 0.0625 mg/mL; for zone of inhibition at 125 µg/mL: 0.125 mg/mL; for zone of inhibition at 250 µg/mL: 0.25 mg/mL; for zone of inhibition at 500 µg/mL: 0.5 mg/mL; for zone of inhibition at 1000 µg/mL: 1 mg/mL, 40 µl per well, 25 °C, 72 h; for lowest inhibition concentration: agar well diffusion, tested 0.0039-1.0 mg/mL
# From the text: (§1) The agar well diffusion method is widely used to evaluate the antimicrobial activity of different substances (S. Magaldi, S. Mata-Essayag, C. Hartung de Capriles, et al. Well diffusion for antifungal susceptibility testing, Int. J. Infect. Dis. 8, 2004 , 39–45; C. Valgas, S. M. De Souza, E. F. A. Smânia, et al. Screening methods to determine antibacterial activity of natural products. Braz. J. Microbiol. 38 , 2007 , 369–380). Similarly to the procedure used in a disk-diffusion method, the agar plate surface is inoculated by spreading a volume of the microbial inoculum over the entire agar surface. Then, a hole with a diameter of 6 to 8 mm is punched aseptically with a sterile cork borer or a tip, and a volume […] of the antimicrobial agent or extract solution at desired concentration is introduced into the well. Then, agar plates are incubated under suitable conditions depending upon the test microorganism. The antimicrobial agent diffuses in the agar medium and inhibits the growth of the microbial strain tested (M. Balouiri, M. Sadiki, S. K. Ibnsouda. Methods for in vitro evaluating […]
# (§2) Agar well diffusion method is a qualitative method used to measure the ability of compounds to inhibit microbial growth. This test is a quick and easy way to measure and compare levels of inhibitory […]
# (§3) Antifungal activity of the synthetic compounds using agar well diffusion The compunds were tested towards plant pathogens Fusarium oxysporum Schltdl. and F. verticillioides (Sacc.) Nirenberg isolated from crops. Antifungal activity of the synthetic compounds was evaluated with using of an agar well diffusion method based on a disk diffusion assay for testing filamentous fungi (CLSI M51-A) [CLSI. Method for Antifungal Disk Diffusion Susceptibility Testing of Nondermatophyte Filamentous Fungi; Approved Guideline.CLSI document M51-A. Wayne, PA:
# (§4) Clinical and Laboratory Standards Institute; 2010. This method is standardized for Altenaria , Aspergillus, Bipolaris , Fusarium , order Mucorales etc.
# (§5) Preparation of synthetic compounds for mycological assay
# (§6) Solutions of fungicides and its analogs were diluted in dimethyl sulfoxide (DMSO) to produce the […]
# (§7) Antifungal well diffusion method
# (§8) The fungal strains were cultured on potato dextrose agar slants (PDA, Eur. Pharm.) and incubated at 25 °C for 5 days. Sterile distilled water was used to cover and resuspend the colonies. Suspension of […]
# (§9) conidia was adjusted to inoculums 5×10^6 conidia/mL. The suspension was further diluted in warm PDA 1:10 to obtain final working inoculums 5×10^5 conidia/mL.
# (§10) Polypropylene cylinders (d, 5 mm) were placed on the surface and wells punched in the medium were used as reservoir of the test substances in different concentrations. 40 µl of solutions containing 0.0039-1.0 mg/mL of a test compound was added into the wells.
# (§11) Each compound was tested in triplicate at different concentrations. Growth control was a well with 40 µl of DMSO, which was used for test components dilution.
# (§12) Plates incubated at 25 °C for 72 h. The test compounds at known concentration into contact with an inoculated medium then exerts a growth-inhibiting effect then a clear zone (the zone of inhibition) appears around the test product. Diameter of a clear zone around the well is measured at the end of the incubation period in millimeters. If the fungal strain is susceptible to the antifungal agent, then a zone of inhibition appears on the agar plate. If it is resistant to the test compound, then no zone is evident.
# (§13) The size of the zone of inhibition is usually related to the level of antifungal activity present in the […]
# (§14) The growth rate of Fusarium oxysporum and F. verticillioides for each well was determined visually and compared with the growth of control.
# (§15) As shown in the table the antifungal activity of the 6 compounds, - Fluxapyroxad, compound 28, compound 29, Boscalid, compound 30, compound 31, - were tested against plant pathogenic fungal […]
# (§16) toward Fusarium oxysporum (Table S5, Figure S16). Inhibition zones of all compounds characterized […]
# Fusarium verticillioides = assay: Antifungal activity, agar well diffusion method; assay type: cell-based; settings: for zone of inhibition at 3.9 µg/mL / zone of inhibition at […] / zone of inhibition at 15.6 µg/mL / zone of inhibition at 31.25 µg/mL / zone of inhibition at 62.5 µg/mL / zone of inhibition at 125 µg/mL / zone of inhibition at 250 µg/mL / zone of inhibition at 500 µg/mL / zone of inhibition at 1000 µg/mL: Fusarium verticillioides, 0 = absence of antifungal activity, read-out: Diameter of inhibition zone; for zone of inhibition at 3.9 µg/mL: 0.0039 mg/mL; for zone of inhibition at […]: 0.0078 mg/mL; for zone of inhibition at 15.6 µg/mL: 0.0156 mg/mL; for zone of inhibition at 31.25 µg/mL: 0.03125 mg/mL; for zone of inhibition at 62.5 µg/mL: 0.0625 mg/mL; for zone of inhibition at 125 µg/mL: 0.125 mg/mL; for zone of inhibition at 250 µg/mL: 0.25 mg/mL; for zone of inhibition at 500 µg/mL: 0.5 mg/mL; for zone of inhibition at 1000 µg/mL: 1 mg/mL, 40 µl per well, 25 °C, 72 h; for lowest inhibition concentration: agar well diffusion, tested 0.0039-1.0 mg/mL
# From the text: as §1, §2, §3, §4, §5, §6, §7, §8, §9, §10, §11, §12, §13, §14, §15, §16
Structure (SMILES),zone of inhibition at 3.9 µg/mL (Fusarium oxysporum) [mm],zone of inhibition at […] (Fusarium oxysporum) [mm],zone of inhibition at 15.6 µg/mL (Fusarium oxysporum) [mm],zone of inhibition at 31.25 µg/mL (Fusarium oxysporum) [mm],zone of inhibition at 62.5 µg/mL (Fusarium oxysporum) [mm],zone of inhibition at 125 µg/mL (Fusarium oxysporum) [mm],zone of inhibition at 250 µg/mL (Fusarium oxysporum) [mm],zone of inhibition at 500 µg/mL (Fusarium oxysporum) [mm],zone of inhibition at 1000 µg/mL (Fusarium oxysporum) [mm],lowest inhibition concentration (Fusarium oxysporum) [mg/mL],zone of inhibition at 3.9 µg/mL (Fusarium verticillioides) [mm],zone of inhibition at […] (Fusarium verticillioides) [mm],zone of inhibition at 15.6 µg/mL (Fusarium verticillioides) [mm],zone of inhibition at 31.25 µg/mL (Fusarium verticillioides) [mm],zone of inhibition at 62.5 µg/mL (Fusarium verticillioides) [mm],zone of inhibition at 125 µg/mL (Fusarium verticillioides) [mm],zone of inhibition at 250 µg/mL (Fusarium verticillioides) [mm],zone of inhibition at 500 µg/mL (Fusarium verticillioides) [mm],zone of inhibition at 1000 µg/mL (Fusarium verticillioides) [mm],lowest inhibition concentration (Fusarium verticillioides) [mg/mL]
Cn1cc(C(=O)N[C@@H]2[C@@H]3CC[C@@]2(c2cc(F)c(F)c(F)c2)C3)c(C(F)F)n1 (relative stereo) [Compound 28],20,25,26 ± 1,28 ± 1,30 ± 0.6,34 ± 1.2,38 ± 1.5,38 ± 0.6,44 ± 1.15,< 0.0039,35 ± 1.5,37 ± 1.5,41 ± 1.2,41 ± 1.7,47 ± 1,48 ± 1.5,51 ± 1.5,51 ± 1.7,58 ± 1.5,–
O=C(N[C@@H]1[C@@H]2CC[C@@]1(c1ccc(Cl)cc1)C2)c1cccnc1Cl (relative stereo) [Compound 30],16 ± 1.2,19 ± 1.2,20 ± 1.5,25 ± 0.6,25,30,30,30,30,< 0.0039,11 ± 1.2,19 ± 1.2,25 ± 0.6,30 ± 0.6,31 ± 1,36 ± 1.7,41 ± 1.2,46 ± 1.7,49 ± 1.2,< 0.0039
"O=C(Nc1ccccc1-c1ccc(Cl)cc1)c1cccnc1Cl [Boscalid, reference compound]",9 ± 0.6,9 ± 1.7,11 ± 1.5,12 ± 1.7,24 ± 1,25,30,31 ± 1.2,39 ± 0.6,0.0039,0,11 ± 1,24 ± 1.5,28 ± 1,30 ± 0.6,–,39 ± 0.6,40 ± 0.6,44 ± 1.2,0.0078
"Cn1cc(C(=O)Nc2ccccc2-c2cc(F)c(F)c(F)c2)c(C(F)F)n1 [Fluxapyroxad, reference compound]",14 ± 1.2,17 ± 1.2,22 ± 1.7,28 ± 1.5,30 ± 0.6,33 ± 1,35 ± 0.6,38 ± 1.5,43 ± 1.53,< 0.0039,19 ± 0.6,26 ± 1.2,30 ± 1.5,33 ± 0.6,34 ± 1.2,36 ± 0.6,40 ± 1,49 ± 1.2,56 ± 1.7,–
Cn1cc(C(=O)N[C@@H]2[C@H]3C[C@]2(c2cc(F)c(F)c(F)c2)CO3)c(C(F)F)n1 (relative stereo) [Compound 29],9 ± 1.2,13 ± 1.5,14 ± 1.2,18 ± 1.5,18 ± 0.6,23 ± 0.6,32 ± 1.7,36 ± 1,38 ± 1.53,0.0039,0,10,15 ± 0.6,26 ± 1.2,31 ± 1.2,35 ± 1,39 ± 1.2,41 ± 1.7,45 ± 0.6,0.0078
